# Source: ChEMBL document CHEMBL3272306, “Synthesis and antimicrobial activity of some novel heterocycles. Azolo-as-triazines” (1976)
# System: Escherichia coli
# Experiment: Antibacterial activity against clinical isolate Escherichia coli assessed as prevention of visible growth at 25 degC after 24 hrs by broth dilution assay
# Format: functional
row,SMILES,MIC [µM]
1,CCC(=O)c1nnc2c(C(N)=O)cnn2c1CC,> 400
2,CCC(=O)c1nnc2c(Br)cnn2c1CC,> 400
3,CCC(=O)c1nnc2cc(-c3ccc(OC)cc3)nn2c1CC,> 400
4,CCCc1cnnc2c(Br)cnn12,> 400
5,Cc1cnnc2ccnn12,> 400
6,Cc1cnnc2c(Br)cnn12,> 400
7,Cc1nnc2c(Br)cnn2c1C,> 400
8,CCCC(=O)c1nnc2nc(SCc3ccccc3)nn2c1CCC,> 400
9,CCCC(=O)c1nnc2nc(S(=O)(=O)Cc3ccccc3)nn2c1CCC,> 400
10,CCC(=O)c1nnc2nccn2c1CC,> 400
11,Cc1nnc2nccn2c1C,> 400
12,CCCC(=O)c1nnc2c(C(N)=O)ncn2c1CCC,> 400
13,CCC(=O)c1nnc2c(C(N)=O)ncn2c1CC,> 400
14,CC(=O)c1nnc2c(C(N)=O)ncn2c1C,> 400

# The next lines start with the values.
row,MIC [µM],SMILES
1,> 400,CCOC(=O)c1nnc2ccnn2c1N
2,> 400,CCCC(=O)c1nnc2c(C(N)=O)nnn2c1CCC
3,> 400,CC(=O)c1nnc2ccnn2c1C
4,> 400,CCCC(=O)c1nnc2c(-c3ccc(Cl)cc3)cnn2c1CCC
5,> 400,CCCC(=O)c1nnc2c(C(=O)OCC)cnn2c1CCC
6,> 400,CCCC(=O)c1nnc2c(C(N)=O)cnn2c1CCC
7,> 400,CCC(=O)c1nnc2ccnn2c1CC
8,> 400,N#Cc1nnc2ccnn2c1N
9,> 400,CCCc1c(C(=O)OCC)nnc2ccnn12
10,> 400,CCCc1cnnc2ccnn12
11,> 400,Cc1nnc2ccnn2c1C
12,> 400,CCCC(=O)c1nnc2ncnn2c1CCC
13,> 400,CCCC(=O)c1nnc2nc(NC)nn2c1CCC
14,> 400,CCOC(=O)c1nnc2nccn2c1N
15,> 400,CCCC(=O)c1nnc2nccn2c1CCC

# System: Pseudomonas aeruginosa
# Experiment: Antibacterial activity against clinical isolate Pseudomonas aeruginosa assessed as prevention of visible growth at 25 degC after 24 hrs by broth dilution assay
# Format: functional
row,SMILES,MIC [µM]
1,CCC(=O)c1nnc2c(C(N)=O)cnn2c1CC,> 400
2,CCC(=O)c1nnc2cc(-c3ccc(OC)cc3)nn2c1CC,> 400
3,CCCc1cnnc2c(Br)cnn12,> 400
4,Cc1cnnc2ccnn12,> 400
5,Cc1cnnc2c(Br)cnn12,> 400
6,Cc1nnc2c(Br)cnn2c1C,> 400
7,CCCC(=O)c1nnc2nc(S(=O)(=O)Cc3ccccc3)nn2c1CCC,> 400
8,CCC(=O)c1nnc2nccn2c1CC,> 400
9,Cc1nnc2nccn2c1C,> 400
10,CCCC(=O)c1nnc2c(C(N)=O)ncn2c1CCC,> 400
11,CCC(=O)c1nnc2c(C(N)=O)ncn2c1CC,> 400
12,CC(=O)c1nnc2c(C(N)=O)ncn2c1C,> 400

# Now from value to molecule:
row,MIC [µM],SMILES
1,160,CCOC(=O)c1nnc2ccnn2c1N
2,> 400,CC(=O)c1nnc2ccnn2c1C
3,400,CCCC(=O)c1nnc2c(-c3ccc(Cl)cc3)cnn2c1CCC
4,> 400,CCCC(=O)c1nnc2c(C(N)=O)cnn2c1CCC
5,> 400,CCC(=O)c1nnc2ccnn2c1CC
6,> 400,N#Cc1nnc2ccnn2c1N
7,> 400,CCCc1c(C(=O)OCC)nnc2ccnn12
8,> 400,CCCc1cnnc2ccnn12
9,> 400,Cc1nnc2ccnn2c1C
10,> 400,CCCC(=O)c1nnc2ncnn2c1CCC
11,> 400,CCCC(=O)c1nnc2nc(NC)nn2c1CCC
12,> 400,CCOC(=O)c1nnc2nccn2c1N
13,> 400,CCCC(=O)c1nnc2nccn2c1CCC

# System: Staphylococcus aureus
# Experiment: Antibacterial activity against clinical isolate Staphylococcus aureus assessed as prevention of visible growth at 25 degC after 24 hrs by broth dilution assay
# Format: functional
row,SMILES,MIC [µM]
1,CCC(=O)c1nnc2c(C(N)=O)cnn2c1CC,> 400
2,CCC(=O)c1nnc2cc(-c3ccc(OC)cc3)nn2c1CC,> 400
3,CCCc1cnnc2c(Br)cnn12,> 400
4,Cc1cnnc2ccnn12,> 400
5,Cc1cnnc2c(Br)cnn12,> 400
6,Cc1nnc2c(Br)cnn2c1C,> 400
7,CCCC(=O)c1nnc2nc(SCc3ccccc3)nn2c1CCC,400
8,CCCC(=O)c1nnc2nc(S(=O)(=O)Cc3ccccc3)nn2c1CCC,> 400
9,CCC(=O)c1nnc2nccn2c1CC,> 400
10,Cc1nnc2nccn2c1C,> 400
11,CCCC(=O)c1nnc2c(C(N)=O)ncn2c1CCC,> 400
12,CCC(=O)c1nnc2c(C(N)=O)ncn2c1CC,> 400
13,CC(=O)c1nnc2c(C(N)=O)ncn2c1C,> 400

# Results, then the molecule that gave them:
row,MIC [µM],SMILES
1,400,CCCC(=O)c1nnc2c(C(N)=O)nnn2c1CCC
2,> 400,CC(=O)c1nnc2ccnn2c1C
3,> 400,CCCC(=O)c1nnc2c(C(N)=O)cnn2c1CCC
4,> 400,CCC(=O)c1nnc2ccnn2c1CC
5,> 400,N#Cc1nnc2ccnn2c1N
6,> 400,CCCc1c(C(=O)OCC)nnc2ccnn12
7,> 400,CCCc1cnnc2ccnn12
8,> 400,Cc1nnc2ccnn2c1C
9,> 400,CCCC(=O)c1nnc2ncnn2c1CCC
10,> 400,CCCC(=O)c1nnc2nc(NC)nn2c1CCC
11,> 400,CCOC(=O)c1nnc2nccn2c1N
12,> 400,CCCC(=O)c1nnc2nccn2c1CCC

# System: Candida albicans
# Experiment: Antifungal activity against clinical isolate Candida albicans assessed as prevention of visible growth at 25 degC after 24 hrs by broth dilution assay
# Format: functional
row,SMILES,MIC [µM]
1,CCC(=O)c1nnc2c(C(N)=O)cnn2c1CC,> 400
2,CCC(=O)c1nnc2cc(-c3ccc(OC)cc3)nn2c1CC,> 400
3,CCCc1cnnc2c(Br)cnn12,> 400
4,Cc1cnnc2ccnn12,> 400
5,Cc1cnnc2c(Br)cnn12,> 400
6,Cc1nnc2c(Br)cnn2c1C,> 400
7,CCCC(=O)c1nnc2nc(S(=O)(=O)Cc3ccccc3)nn2c1CCC,> 400
8,CCC(=O)c1nnc2nccn2c1CC,> 400
9,Cc1nnc2nccn2c1C,> 400
10,CCCC(=O)c1nnc2c(C(N)=O)ncn2c1CCC,> 400
11,CCC(=O)c1nnc2c(C(N)=O)ncn2c1CC,> 400
12,CC(=O)c1nnc2c(C(N)=O)ncn2c1C,> 400

# Other lines, results leading:
row,MIC [µM],SMILES
1,> 400,CC(=O)c1nnc2ccnn2c1C
2,400,CCCC(=O)c1nnc2c(C(=O)OCC)cnn2c1CCC
3,> 400,CCCC(=O)c1nnc2c(C(N)=O)cnn2c1CCC
4,> 400,CCC(=O)c1nnc2ccnn2c1CC
5,> 400,N#Cc1nnc2ccnn2c1N
6,> 400,CCCc1c(C(=O)OCC)nnc2ccnn12
7,> 400,CCCc1cnnc2ccnn12
8,> 400,Cc1nnc2ccnn2c1C
9,> 400,CCCC(=O)c1nnc2ncnn2c1CCC
10,> 400,CCCC(=O)c1nnc2nc(NC)nn2c1CCC
11,> 400,CCOC(=O)c1nnc2nccn2c1N
12,> 400,CCCC(=O)c1nnc2nccn2c1CCC

# System: Trichophyton mentagrophytes
# Experiment: Antifungal activity against clinical isolate Trichophyton mentagrophytes assessed as prevention of visible growth at 30 degC after 48 hrs by broth dilution assay
# Format: functional
row,SMILES,MIC [µM]
1,CCC(=O)c1nnc2c(C(N)=O)cnn2c1CC,> 400
2,CCC(=O)c1nnc2c(Br)cnn2c1CC,160
3,CCC(=O)c1nnc2cc(-c3ccc(OC)cc3)nn2c1CC,> 400
4,CCCc1cnnc2c(Br)cnn12,> 400
5,Cc1cnnc2ccnn12,> 400
6,Cc1cnnc2c(Br)cnn12,> 400
7,Cc1nnc2c(Br)cnn2c1C,> 400
8,CCCC(=O)c1nnc2nc(S(=O)(=O)Cc3ccccc3)nn2c1CCC,> 400
9,CCC(=O)c1nnc2nccn2c1CC,> 400
10,Cc1nnc2nccn2c1C,> 400
11,CCCC(=O)c1nnc2c(C(N)=O)ncn2c1CCC,> 400
12,CCC(=O)c1nnc2c(C(N)=O)ncn2c1CC,> 400
13,CC(=O)c1nnc2c(C(N)=O)ncn2c1C,> 400

# Now from value to molecule:
row,MIC [µM],SMILES
1,> 400,CC(=O)c1nnc2ccnn2c1C
2,> 400,CCCC(=O)c1nnc2c(C(N)=O)cnn2c1CCC
3,> 400,CCC(=O)c1nnc2ccnn2c1CC
4,> 400,N#Cc1nnc2ccnn2c1N
5,> 400,CCCc1c(C(=O)OCC)nnc2ccnn12
6,> 400,CCCc1cnnc2ccnn12
7,> 400,Cc1nnc2ccnn2c1C
8,> 400,CCCC(=O)c1nnc2ncnn2c1CCC
9,> 400,CCCC(=O)c1nnc2nc(NC)nn2c1CCC
10,> 400,CCOC(=O)c1nnc2nccn2c1N
11,> 400,CCCC(=O)c1nnc2nccn2c1CCC
